Patent publication US20070117743A1, “New antitumoral compounds” (priority 2003, published 2007)
Read-outs that look alike come from different tables or passages of the source.

Assays:
Type in all cases: cell-based, human
SK-BR-3 = assay: SRB colorimetric assay of cell growth and viability, SK-BR-3; settings: 48 hours exposure
HT-29 = assay: SRB colorimetric assay of cell growth and viability, HT-29; settings: 48 hours exposure; for GI50: read-out: GI50 HT-29; for CC50: read-out: LC50 HT-29
LoVo = assay: SRB colorimetric assay of cell growth and viability, LoVo; settings: 48 hours exposure; for CC50: read-out: LC50 LOVO
DU-145 = assay: SRB colorimetric assay of cell growth and viability, DU-145; settings: 48 hours exposure
K-562 = assay: SRB colorimetric assay of cell growth and viability, K-562; settings: 48 hours exposure; for CC50: read-out: LC50 K-562
PANC-1 = assay: SRB colorimetric assay of cell growth and viability, PANC-1; settings: 48 hours exposure; for CC50: read-out: LC50 PANC-1
SK-MEL-28 = assay: SRB colorimetric assay of cell growth and viability, SK-MEL-28; settings: 48 hours exposure; for CC50: read-out: LC50 MEL-28
HeLa-APL = assay: SRB colorimetric assay of cell growth and viability, HeLa-APL; settings: 48 hours exposure; for CC50: read-out: LC50 HELA-APL
A-549 = assay: SRB colorimetric assay of cell growth and viability, A-549; settings: 48 hours exposure; for GI50: read-out: GI50 A-549; for CC50: read-out: LC50 A-549
IGROV-1 = assay: SRB colorimetric assay of cell growth and viability, IGROV-1; settings: 48 hours exposure
LNCaP = assay: SRB colorimetric assay of cell growth and viability, LNCaP; settings: 48 hours exposure; for GI50: read-out: GI50 LN-caP; for CC50: read-out: LC50 LN-caP
Source text: The finality of this assay is to interrupt the growth of a “in vitro” tumor cell culture by means a continued exhibition of the cells to the sample to be testing.
This form of the assay employs 96 well cell culture microplates of 9 mm diameter (Faircloth, 1988; Mosmann, 1983). Most of the cell lines are obtained from American Type Culture Collection (ATCC) derived from different human cancer types.
Cells are maintained in RPMI 1640 10% FBS, supplemented with 0.1 g/l penicillin and 0.1 g/l streptomycin sulfate and then incubated at 37° C., 5% CO2 and 98% humidity. For the experiments, cells were harvested from subconfluent cultures using trypsin and resuspended in fresh medium before plating.
Cells are seeded in 96 well microtiter plates, at 5×10^3 cells per well in aliquots of 195 μL medium, and they are allowed to attach to the plate surface by growing in drug free medium for 18 hours. Afterward, samples are added in aliquots of 5 μL in a ranging from 10 to 10^−8 μg/mL, dissolved in DMSO:EtOH:PBS (0.5:0.5:99). After 48 hours exposure, the antitumor effect are measured by the SRB methodology: cells are fixed by adding 50 μL of cold 50% (wt/vol) trichloroacetic acid (TCA) and incubating for 60 minutes at 4° C. Plates are washed with deionized water and dried. One hundred μL of SRB solution (0.4% wt/vol in 1% acetic acid) is added to each microtiter well and incubated for 10 minutes at room temperature. Unbound SRB is removed by washing with 1% acetic acid. Plates are air dried and bound stain is solubilized with Tris buffer. Optical densities are read on a automated spectrophotometric plate reader at a single wavelength of 490 nm.
The values for mean+/− SD of data from triplicate wells are calculated. Some parameters for cellular responses can be calculated: GI=growth inhibition, TGI=total growth inhibition (cytostatic effect) and LC=cell killing (cytotoxic effect).

HeLa = assay: SRB colorimetric assay of cell growth and viability, HeLa; settings: 48 hours exposure; for CC50: read-out: LC50 HELA
IGROV-ET = assay: SRB colorimetric assay of cell growth and viability, IGROV-ET; settings: 48 hours exposure; for CC50: read-out: LC50 IGROV-ET
LoVo-Dox = assay: SRB colorimetric assay of cell growth and viability, LoVo-Dox; settings: 48 hours exposure, SRB
How it was run: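 Tumor cells are continuously exposed to sample for 48 hours, with vehicle DMSO:EtOH:PBS (0.5:0.5:99), after an 18-hour drug-free attachment period. Bound SRB, measured at 490 nm, reflects cell mass; GI, TGI and LC are derived from triplicate means.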

C/C=C1\NC(=O)[C@H](Cc2ccccc2)NC(=O)[C@@H](C(C)C)NC(=O)[C@@H]([C@@H](C)CC)NC(=O)[C@H](NC(=O)[C@H](NC(=O)[C@H](CCCN)NC(=O)[C@H]2CCCN2C(=O)[C@H](NC(=O)[C@@H](NC(=O)[C@@H](NC(=O)[C@H](NC(=O)c2ccccc2)C(C)C)[C@@H](C)O)C(C)C)C(C)C)[C@@H](C)CC)[C@@H](C)OC(=O)[C@H](C(C)C)NC1=O [Compound 20, [Bza^14]-KF]
GI50 (SK-BR-3): 320 nM | LC50 (SK-BR-3): 3380 nM | TGI SK-BR-3 (SK-BR-3): 1.16E−06 Molar | TGI HT-29 (HT-29): 1.64E−06 Molar | GI50 (HT-29): 694 nM | CC50 (HT-29): 3880 nM | GI50 (LoVo): 128 nM | TGI LOVO (LoVo): 3.03E−07 Molar | CC50 (LoVo): 810 nM | GI50 (DU-145): 939 nM | LC50 (concentration causing 50% net cell kill) (DU-145): 4250 nM | TGI DU-145 (DU-145): 1.99E−06 Molar | GI50 (K-562): 305 nM | TGI K-562 (K-562): 2.12E−06 Molar | CC50 (K-562): 6800 nM | GI50 (PANC-1): 3790 nM | TGI PANC-1 (PANC-1): 6.80E−06 Molar | CC50 (PANC-1): 6800 nM | GI50 (SK-MEL-28): 1200 nM | TGI MEL-28 (SK-MEL-28): 2.26E−06 Molar | CC50 (SK-MEL-28): 4230 nM | GI50 (HeLa-APL): 1010 nM | TGI HELA-APL (HeLa-APL): 2.08E−06 Molar | CC50 (HeLa-APL): 4270 nM | TGI A-549 (A-549): 1.95E−06 Molar | GI50 (A-549): 952 nM | CC50 (A-549): 3970 nM | GI50 (IGROV-1): 714 nM | LC50 (concentration causing 50% net cell killing) (IGROV-1): 4200 nM | TGI IGROV (IGROV-1): 1.73E−06 Molar | TGI LN-caP (LNCaP): 2.87E−06 Molar | GI50 (LNCaP): 1180 nM | CC50 (LNCaP): 6800 nM | GI50 (HeLa): 1110 nM | TGI HELA (HeLa): 2.30E−06 Molar | CC50 (HeLa): 4760 nM | GI50 (IGROV-ET): 755 nM | TGI IGROV-ET (IGROV-ET): 1.78E−06 Molar | CC50 (IGROV-ET): 4200 nM

C/C=C1\NC(=O)[C@H](Cc2ccccc2)NC(=O)[C@@H](C(C)C)NC(=O)[C@@H]([C@@H](C)CC)NC(=O)[C@H](NC(=O)[C@H](NC(=O)[C@H](CCCC[N+](C)(C)C)NC(=O)[C@H]2CCCN2C(=O)[C@H](NC(=O)[C@@H](NC(=O)[C@@H](NC(=O)[C@H](NC(=O)CC[C@@H](C)CC)C(C)C)[C@@H](C)O)C(C)C)C(C)C)[C@@H](C)CC)[C@@H](C)OC(=O)[C@H](C(C)C)NC1=O [Compound 93, [N^ε(Me)3-Lys^8, (4S)-MeHex^14]-KF]
TGI HT-29 (HT-29; SRB): 2.72E−07 Molar | GI50 (HT-29; SRB): 168 nM | CC50 (HT-29; SRB): 439 nM | GI50 (LoVo; SRB): 80.8 nM | TGI LOVO (LoVo; SRB): 2.08E−07 Molar | CC50 (LoVo; SRB): 537 nM | GI50 (DU-145; SRB): 6.21 nM | LC50 (concentration causing 50% net cell kill) (DU-145; SRB): 44 nM | TGI DU-145 (DU-145; SRB): 1.66E−08 Molar | GI50 (K-562; SRB): 1490 nM | TGI K-562 (K-562; SRB): 2.72E−06 Molar | CC50 (K-562; SRB): 4940 nM | GI50 (PANC-1; SRB): 1110 nM | TGI PANC-1 (PANC-1; SRB): 2.08E−06 Molar | CC50 (PANC-1; SRB): 3900 nM | GI50 (SK-MEL-28; SRB): 320 nM | TGI MEL-28 (SK-MEL-28; SRB): 9.51E−07 Molar | CC50 (SK-MEL-28; SRB): 2600 nM | GI50 (HeLa-APL; SRB): 651 nM | TGI HELA-APL (HeLa-APL; SRB): 1.43E−06 Molar | CC50 (HeLa-APL; SRB): 3150 nM | TGI A-549 (A-549; SRB): 6.97E−07 Molar | GI50 (A-549; SRB): 186 nM | CC50 (A-549; SRB): 2440 nM | GI50 (LoVo-Dox): 78.2 nM | TGI LOVO-DOX (LoVo-Dox): 1.82E−07 Molar | CC50 (LoVo-Dox; read-out: LC50 LOVO-DOX): 426 nM | GI50 (IGROV-1; SRB): 214 nM | LC50 (concentration causing 50% net cell killing) (IGROV-1; SRB): 866 nM | TGI IGROV (IGROV-1; SRB): 3.90E−08 Molar | TGI LN-caP (LNCaP; SRB): 2.16E−06 Molar | GI50 (LNCaP; SRB): 795 nM | CC50 (LNCaP; SRB): 5880 nM | GI50 (HeLa; SRB): 491 nM | TGI HELA (HeLa; SRB): 1.25E−06 Molar | CC50 (HeLa; SRB): 3250 nM | GI50 (IGROV-ET; SRB): 266 nM | TGI IGROV-ET (IGROV-ET; SRB): 7.17E−07 Molar | CC50 (IGROV-ET; SRB): 2490 nM
